Here are results for 78 molecules from ChEMBL document CHEMBL3124812, “Benzamidobenzoic acids as potent PqsD inhibitors for the treatment of Pseudomonas aeruginosa infections” (Eur J Med Chem, 2014).

Molecules are shown by their SMILES. Active and inactive are the calls of the source. The rule behind the calls is not given here.

System in the first experiment: not listed separately
As to the kind of experiment: Inhibition of Pseudomonas aeruginosa His-6-tagged PqsD expressed in Escherichia coli BL21 (lambdaDE3) using anthraniloyl-CoA/beta-ketodecanoic acid as substrate by LC-MS/MS analysis.
Settings: not given
Regarding `COC(=O)c1cc(Br)ccc1NC(=O)c1ccc(-c2ccccc2)cc1`, the IC50 result was “Not Active”.
Turning to `COc1cccc(NC(=O)c2ccc(-c3ccccc3)cc2)c1C(=O)O`, the IC50 entry is listed as “Not Active”.
On to `N#Cc1cc(Br)ccc1NC(=O)c1ccc(-c2ccccc2)cc1`, for which the IC50 result was “Not Active”.
`O=C(O)c1ccc(Br)c(NC(=O)c2ccc(-c3ccccc3)cc2)c1`: the IC50 result is recorded as “Not Active”.
Take `O=C(Nc1ccccc1C(=O)O)c1ccccc1`: the IC50 entry is given as “Not Active”.
Take `NC(=O)c1cc(Br)ccc1NC(=O)c1ccc(-c2ccccc2)cc1`: the IC50 result was “Not Active”.

The same experiment, now with this note: read-out: IC50.
On to `O=C(Nc1cc(F)ccc1C(=O)O)c1ccc(-c2ccccc2)cc1`, for which the IC50 is 18.2 µM.
For the molecule `O=C(Nc1sccc1C(=O)O)c1ccc(-c2ccccc2)cc1`, the IC50 came out at 15.7 µM.
In the case of `O=C(O)c1cc(Br)ccc1NS(=O)(=O)c1ccc(-c2ccccc2)cc1`, the IC50 worked out at 1.3 µM.
On to `O=C(Nc1ccccc1C(=O)O)c1ccc(-c2ccccc2)c(Oc2ccccc2)c1`, for which the IC50 was found to be 6.6 µM.
Consider `O=C(Nc1cc(Cl)ccc1C(=O)O)c1ccc(-c2ccccc2)cc1`, for which the IC50 was 8.7 µM.
Regarding `O=C(O)c1cc(Br)cc(NC(=O)c2ccc(-c3ccccc3)cc2)c1`, the IC50 stood at 32.6 µM.
For `O=C(Nc1cc(F)ccc1C(=O)O)c1ccc(-c2ccccc2)c(Oc2ccccc2)c1`, the IC50 worked out at 6 µM.
Consider `O=C(Nc1cc(C(F)(F)F)ccc1C(=O)O)c1ccc(-c2ccccc2)cc1`, for which the IC50 was 4.9 µM.
As for `O=C(Nc1cc([N+](=O)[O-])ccc1C(=O)O)c1ccc(-c2ccccc2)cc1`, the IC50 is 3.3 µM.
With `O=C(Nc1cc(Cl)ccc1C(=O)O)c1cccc(Oc2ccccc2)c1`, the IC50 is 5.7 µM.
`O=C(Nc1cc(-c2ccccc2)sc1C(=O)O)c1ccc(-c2ccccc2)cc1`: the IC50 was found to be 9.8 µM.
Still for that read-out and setting: the figure for `O=C(Nc1ccc(O)cc1C(=O)O)c1ccc(-c2ccccc2)cc1` is 4.2 µM; for `O=C(Nc1ccc(OC(F)(F)F)cc1C(=O)O)c1ccc(-c2ccccc2)cc1` it is 4 µM.
`O=C(Nc1cscc1C(=O)O)c1ccc(-c2ccccc2)cc1`: the IC50 stood at 19.5 µM.
`O=C(Nc1ccc(Br)cc1C(=O)O)c1ccc(-c2ccccc2)cc1`: the IC50 was found to be 3.2 µM.
As for `O=C(Nc1ccsc1C(=O)O)c1ccc(-c2ccccc2)cc1`, the IC50 is 5.2 µM.
On the same count and under the same terms, to `O=C(Nc1ccc(Br)cc1C(=O)O)c1cccc(Cc2ccccc2)c1` belongs 5 µM; to `O=C(Nc1cc(Br)ccc1C(=O)O)c1ccc(-c2ccccc2)cc1`, 3.2 µM.
Still for that read-out and setting: the figure for `O=C(Nc1ccc(Cl)cc1C(=O)O)c1ccc(-c2ccccc2)cc1` is 3.8 µM.
In the case of `O=C(Nc1c(Cl)cccc1C(=O)O)c1ccc(-c2ccccc2)cc1`, the IC50 amounted to 6.2 µM.
With `O=C(Nc1ccc(-c2ccccc2)cc1C(=O)O)c1cccc(Oc2ccccc2)c1`, the IC50 came out at 7.7 µM.
In the case of `O=C(Nc1ccc(Br)cc1C(=O)O)c1cccc(Oc2ccccc2)c1`, the concentration for half-maximal inhibition (IC50) was 4.4 µM.
As to `O=C(Nc1cc(Cl)ccc1C(=O)O)c1ccc(-c2ccccc2)c(Oc2ccccc2)c1`, the IC50 amounted to 5 µM.
In the case of `N#Cc1ccc(NC(=O)c2ccc(-c3ccccc3)cc2)c(C(=O)O)c1`, the IC50 is 8.6 µM.
Consider `O=C(Nc1cc(-c2ccccc2)ccc1C(=O)O)c1cccc(Oc2ccccc2)c1`, for which the IC50 was found to be 6.6 µM.
Take `O=C(Nc1ccc(F)cc1C(=O)O)c1ccc(-c2ccccc2)cc1`: the IC50 amounted to 15.2 µM.
Regarding `O=C(Nc1cc(Br)ccc1C(=O)O)c1cccc(Oc2ccccc2)c1`, the IC50 was determined as 5.1 µM.
On to `O=C(Nc1ccc(C(F)(F)F)cc1C(=O)O)c1ccc(-c2ccccc2)cc1`, for which the IC50 amounted to 3.4 µM.

For the next experiment, the system named is Pseudomonas aeruginosa. As to the kind of experiment: Inhibition of Pseudomonas aeruginosa His-6-tagged PqsD expressed in Escherichia coli BL21 (lambdaDE3) using anthraniloyl-CoA/beta-ketodecanoic acid at 50 uM as substrate by LC-MS/MS analysis.
Settings: not given
The molecule `O=C(Nc1ccc(F)cc1C(=O)O)c1cccc(Oc2ccccc2)c1` registered an inhibition of 57%.
`O=C(Nc1ccccc1C(=O)O)c1ccc(-c2ccccc2)cc1`: the inhibition was found to be 55%.
Same read-out and setting: to `COc1ccc(NC(=O)c2ccc(-c3ccccc3)cc2)c(C(=O)O)c1` belongs 46%; to `COc1ccc(-c2cc(NC(=O)c3ccc(-c4ccccc4)cc3)c(C(=O)O)s2)cc1`, 45%; to `O=C(Nc1cccc(F)c1C(=O)O)c1ccc(-c2ccccc2)cc1`, 21%.
Consider `O=C(Nc1cccc(Cl)c1C(=O)O)c1ccc(-c2ccccc2)cc1`, for which the inhibition came to 20%.
`Cc1ccc(NC(=O)c2ccc(-c3ccccc3)cc2)c(C(=O)O)c1`: the inhibition turned out to be 42%.
In turn, `COc1cc(NC(=O)c2cccc(Oc3ccccc3)c2)c(C(=O)O)cc1OC` yielded an inhibition of 27%.
For `O=C(Nc1ccccc1C(=O)O)c1cccc(Oc2ccccc2)c1`, the inhibition was 37%.
On to `COc1cc(NC(=O)c2ccc(-c3ccccc3)cc2)c(C(=O)O)cc1OC`, for which the inhibition came to 27%.
Take `O=C(Nc1cc(-c2ccc(Cl)cc2)sc1C(=O)O)c1ccc(-c2ccccc2)cc1`: the inhibition turned out to be 35%.

System in a further experiment: not listed separately
Briefly: Inhibition of Escherichia coli RNAP assessed as incorporation of [5,6-3H]UTP preincubated for 10 mins followed by DNA template and ATP, CTP, GTP, UTP, [5,6-3H]UTP addition measured after 10 mins by scintillation counting analysis.
Settings: not given
In the case of `COC(=O)c1cc(Br)ccc1NC(=O)c1ccc(-c2ccccc2)cc1`, the IC50 result was “Not Active”.
For `N#Cc1cc(Br)ccc1NC(=O)c1ccc(-c2ccccc2)cc1`, the IC50 entry was “Not Active”.
Regarding `NC(=O)c1cc(Br)ccc1NC(=O)c1ccc(-c2ccccc2)cc1`, the IC50 result is “Not Active”.

Staying with this experiment, now noted: read-out: IC50.
Regarding `O=C(Nc1sccc1C(=O)O)c1ccc(-c2ccccc2)cc1`, the IC50 is 161 µM.
For the molecule `O=C(O)c1cc(Br)ccc1NS(=O)(=O)c1ccc(-c2ccccc2)cc1`, the IC50 stood at 35 µM.
On the same count and under the same terms, to `O=C(O)c1cc(Br)cc(NC(=O)c2ccc(-c3ccccc3)cc2)c1` belongs 110 µM; to `COc1ccc(-c2cc(NC(=O)c3ccc(-c4ccccc4)cc3)c(C(=O)O)s2)cc1`, 9 µM.
Turning to `O=C(Nc1cc(-c2ccccc2)sc1C(=O)O)c1ccc(-c2ccccc2)cc1`, the IC50 was 10 µM.
Regarding `O=C(Nc1cc(-c2ccc(Cl)cc2)sc1C(=O)O)c1ccc(-c2ccccc2)cc1`, the IC50 was 13 µM.
As to `CCN(CC)S(=O)(=O)c1cccc(C(=O)Nc2ccc(-c3ccc(C(N)=O)cc3)cc2C(=O)O)c1`, the IC50 is 78 µM.

Another experiment concerns Escherichia coli. As to the kind of experiment: Inhibition of Escherichia coli RNAP assessed as incorporation of [5,6-3H]UTP at 100 uM preincubated for 10 mins followed by DNA template and ATP, CTP, GTP, UTP, [5,6-3H]UTP addition measured after 10 mins by scintillation counting analysis.
Settings: not given
For `CCN(CC)S(=O)(=O)c1cccc(C(=O)Nc2cc(Cl)ccc2C(=O)O)c1`, the inhibition result was “inactive”.
`CCN(CC)S(=O)(=O)c1cccc(C(=O)Nc2ccc(F)cc2C(=O)O)c1`: the inhibition result was “inactive”.
For `CCN(CC)S(=O)(=O)c1cccc(C(=O)Nc2ccc([N+](=O)[O-])cc2C(=O)O)c1`, the inhibition was found to be 30%.
On to `CCN(CC)S(=O)(=O)c1cc(C(=O)Nc2ccc(F)cc2C(=O)O)ccc1Br`, for which the inhibition entry was “inactive”.
For `CCN(CC)S(=O)(=O)c1cccc(C(=O)Nc2ccc(-c3ccccc3)cc2C(=O)O)c1`, the inhibition entry was “inactive”.

For the next experiment, the system named is Escherichia coli. As to the kind of experiment: Inhibition of Escherichia coli RNAP assessed as incorporation of [5,6-3H]UTP at 50 uM preincubated for 10 mins followed by DNA template and ATP, CTP, GTP, UTP, [5,6-3H]UTP addition measured after 10 mins by scintillation counting analysis.
Settings: not given
As for `CCN(CC)S(=O)(=O)c1cc(C(=O)Nc2ccc(Br)cc2C(=O)O)ccc1Br`, the inhibition result was “inactive”.

A further experiment concerns Escherichia coli. Briefly: Inhibition of Escherichia coli RNAP assessed as incorporation of [5,6-3H]UTP at 200 uM preincubated for 10 mins followed by DNA template and ATP, CTP, GTP, UTP, [5,6-3H]UTP addition measured after 10 mins by scintillation counting analysis.
Settings: not given
In the case of `CCN(CC)S(=O)(=O)c1ccc(C(=O)Nc2ccc(Br)cc2C(=O)O)cc1`, the inhibition turned out to be 28%.
Still for that read-out and setting: the entry for `CCN(CC)S(=O)(=O)c1cc(C(=O)Nc2ccccc2C(=O)O)ccc1C` is “inactive”; for `CCN(Cc1ccccc1)S(=O)(=O)c1cccc(C(=O)Nc2ccccc2C(=O)O)c1` it is 29%.
With `CCN(CC)S(=O)(=O)c1ccc(C(=O)Nc2ccccc2C(=O)O)cc1`, the inhibition entry is “inactive”.
Regarding `CCCN(CCC)S(=O)(=O)c1cccc(C(=O)Nc2ccccc2C(=O)O)c1`, the inhibition entry is “inactive”.
Turning to `CCN(CC)C(=O)c1cccc(C(=O)Nc2ccc(Br)cc2C(=O)O)c1`, the inhibition entry is “inactive”.
Take `O=C(Nc1ccccc1C(=O)O)c1cccc(S(=O)(=O)N2CCCCC2)c1`: the inhibition result was “inactive”.
As for `CCc1ccc(C(=O)Nc2ccccc2C(=O)O)cc1S(=O)(=O)N(CC)CC`, the inhibition entry is “inactive”.
For the molecule `CCN(CC)C(=O)c1cccc(C(=O)Nc2ccccc2C(=O)O)c1`, the inhibition result is “inactive”.
As to `CN(C)S(=O)(=O)c1cccc(C(=O)Nc2ccccc2C(=O)O)c1`, the inhibition result is “inactive”.
On to `CCN(CC)S(=O)(=O)c1cccc(C(=O)Nc2cccc(F)c2C(=O)O)c1`, for which the inhibition result was “inactive”.
The same measure, in the same setting: to `O=C(Nc1ccccc1C(=O)O)c1cccc(S(=O)(=O)N2CCCC2)c1` belongs “inactive”; to `CCN(CC)S(=O)(=O)c1cccc(C(=O)Nc2cccc(O)c2C(=O)O)c1`, “inactive”; to `CCN(CC)S(=O)(=O)c1cccc(C(=O)Nc2cccc(Cl)c2C(=O)O)c1`, “inactive”.
Consider `CCN(CC)S(=O)(=O)c1cccc(C(=O)Nc2ccc(C)cc2C(=O)O)c1`, for which the inhibition entry was “inactive”.
Turning to `CCN(CC)S(=O)(=O)c1cccc(C(=O)Nc2ccc(-c3cccc(C(=O)O)c3)cc2C(=O)O)c1`, the inhibition stood at 24%.
As for `O=C(Nc1ccccc1C(=O)O)c1cccc(S(=O)(=O)N2CCCCCC2)c1`, the inhibition entry was “inactive”.
For `CCN(CC)S(=O)(=O)c1cc(C(=O)Nc2ccccc2C(=O)O)ccc1Br`, the inhibition entry is “inactive”.
Still for that read-out and setting: the entry for `CCN(CC)S(=O)(=O)c1cccc(C(=O)Nc2cc([N+](=O)[O-])ccc2C(=O)O)c1` is “inactive”; for `O=C(Nc1cscc1C(=O)O)c1ccc(-c2ccccc2)cc1` it is 33%.
Regarding `CCN(CC)S(=O)(=O)c1cccc(C(=O)Nc2cccc(OC)c2C(=O)O)c1`, the inhibition entry is “inactive”.
For `CCN(CC)S(=O)(=O)c1cccc(C(=O)Nc2cc(F)ccc2C(=O)O)c1`, the inhibition entry is “inactive”.
For `O=C(Nc1ccsc1C(=O)O)c1ccc(-c2ccccc2)cc1`, the inhibition stood at 28%.
As for `O=C(O)c1ccc(Br)c(NC(=O)c2ccc(-c3ccccc3)cc2)c1`, the inhibition was found to be 25%.
Regarding `CCN(CC)S(=O)(=O)c1cccc(C(=O)Nc2ccc(-c3cccc(C(N)=O)c3)cc2C(=O)O)c1`, the inhibition came out at 45%.
The same measure, in the same setting: the entry for `O=C(Nc1ccccc1C(=O)O)c1cccc(S(=O)(=O)N2CCOCC2)c1` is “inactive”; for `CCN(CC)S(=O)(=O)c1cccc(C(=O)Nc2ccc(C#N)cc2C(=O)O)c1` it is “inactive”; for `CCN(CC)S(=O)(=O)c1cccc(C(=O)Nc2ccccc2C(=O)O)c1` it is “inactive”.
On to `NS(=O)(=O)c1cccc(C(=O)Nc2ccccc2C(=O)O)c1`, for which the inhibition entry is “inactive”.
